According to PMC4502414, “Transforming berberine into its intestine-absorbable form by the gut microbiota” (Scientific Reports, 2015):

Columns and labels:
[1] = test system: rat small intestinal bacteria (RSIB); experiment: Conversion of BBR into dhBBR by rat small intestinal bacteria in vitro; type: in vitro ADME; details: BBR incubated with rat small intestine bacteria
Procedure: The small intestine contents from ten sacrificed SD rats were obtained and mixed with anaerobic medium to prepare the cultures. BBR was added into the incubation at final concentrations of 100, 50, and 10 μg/ml, and the reaction was continued for 6, 12 or 24 h. Levels of BBR, dhBBR and other BBR metabolites were determinedusing the LC-MS/MS 8040 and GC-MS instruments according to the above-mentioned method.

[2] = Absorption of BBR and dhBBR in Caco-2 cells; type: in vitro ADME; details: human
Procedure: (§1) A Caco-2 cell assay was conducted using a method reported previously. […] To determine the rate of drug transport in the apical-to-basolateral direction, 200 μl of the compound working solution was added to the filter well (apical compartment), and 800 μl of HBSS was added to the receiver plate (basolateral compartment). Accordingly, to determine the rate of drug transport in the basolateral-to-apical direction, 800 μl of the compound working solution was added to each well of the receiver plate and 200 μl of HBSS was added to the filter well. The plates were incubated for 30 min at 37 °C with shaking at 150 rpm on a rotary shaker. At the end of the transport period, aliquots of 50 μl were removed directly from the apical and basolateral wells and transferred to wells of new plates. Four volumes of cold methanol containing internal standards were added into each well. The samples were centrifuged at 16,000 g for 15 min. Aliquots of 200 μl of the supernatant were used for the LC-MS/MS analysis.

[3] = test system: Caco-2 cells; experiment: Absorption of BBR and dhBBR in Caco-2 cells; type: in vitro ADME; details: Caco-2
Procedure: as §1

[4] = dhBBR-to-BBR reversion in rat small intestine homogenate; type: in vitro ADME; details: 10-min incubation
Procedure: The rat duodenum, jejunum and ileum were collected separately, washed thoroughly with saline and dried. After being weighed, the tissues were homogenized with saline at a ratio of 1: 2 [w (g) /v (ml)]. DhBBR was dissolved in a mixture of methanol and DMSO at a ratio of 1:1 with a final concentration of 5 mg/ml. Ten microliters of dhBBR (5 mg/ml) was mixed with 1 ml of the homogenates. The samples were then centrifuged at 14,000 g for 5 min, and the supernatants were collected and mixed with an equal volume of ice-cold acetonitrile to terminate the reaction. The samples were centrifuged at 14,000 g for 5 min, and the supernatant was used for the HPLC analysis.

[5] = Plasma pharmacokinetics after oral dhBBR or BBR in rats; type: in vivo, SD rats; details: oral dhBBR 200 mg/kg
Procedure: The plasma (100 μl) was precipitated with 100 μl of acetonitrile after addition of 10 μl of the internal standard. BBR served as a control in the study. The plasma concentrations of BBR and dhBBR were determined using LC-MS/MS 8040 and LC-MS/MS 8050.

[6] = test system: 17 intestinal bacteria; experiment: Anti-bacterial test (MIC, broth microdilution); type: cell-based; details: 17 intestinal bacteria strains, 24 h
Procedure: Seventeen bacterial strains (see above) were used in the susceptibility test for BBR and dhBBR. The bacterial strains, which belong to different species of bacteria, were collected and identified as described above. The minimum inhibitory concentrations (MICs) of BBR and dhBBR after 24 h were determined through the broth microdilution method according to the CLSI guidelines. BBR and dhBBR were tested at a concentration range of 8 to 512 μg/ml. The MIC was defined as the lowest concentration of an agent that prevents turbidity. The experiment was repeated three times. All of the bacterial strains tested in this study (S. aureus ATCC 29213, E. faecalis ATCC 29212, E. coli ATCC 25922, S. aureus 08-43, S. epidermidis 12-12, E. faecium 13-01, E. faecalis 13-01, E. coli 06-05, K. pneumoniae 13-14, Ps. aeruginosa 13-10, A. baumannii 13-02, E. cloacae 13-12, and P. mirabilis 13-01) were facultative anaerobes, of which S. aureus ATCC 29213, E. faecalis ATCC 29212 and E. coli ATCC 25922 were standard strains from ATCC (USA) and served as quality controls. L. casei ATCC 334, L. acidophilus ATCC 4356, B. longum ATCC 15707, and B. breve ATCC 15700 were also tested in this anti-bacterial experiment. Ampicillin was used as the positive control.

[7] = test system: rat large intestinal bacteria (RLIB); experiment: Conversion of BBR into dhBBR by rat large intestinal bacteria in vitro; type: in vitro ADME; details: BBR incubated with rat large intestinal bacteria
Procedure: The method was reported previously. Briefly, colon contents from six rats were pooled, and 5 g of the sample was transferred into a flask containing the anaerobic medium (100 ml). After thorough mixing, the cultures (which contained intestinal bacteria and anaerobic medium) were pre-incubated under anaerobic conditions with a N2 atmosphere at 37 °C for 60 min. Rutin (10 μl, 1.0 mg/ml in methanol) was used as a positive reference for intestinal metabolism.
Ten microliters of BBR at different concentrations was added into the fresh human or rat intestinal bacteria cultures (990 μl), with methanol (10 μl) as the negative control. The final concentrations of BBR in the incubation system were 100, 10, and 5 μg/ml. The cultures were incubated at 37 °C for 72 h in the presence or absence of human or rat intestinal bacteria.
After termination of the reaction with acetonitrile (1 ml), 50 μl of the internal standard (tetrahydropalmatine, 2.0 mg/ml in methanol) was added into the BBR samples, which were then mixed for 30 sec and centrifuged at 7,500 g for 15 min. The supernatant was dried under nitrogen flow at room temperature, and the residue was dissolved in 100 μl of methanol and centrifuged at 7,500 g for 15 min. The metabolites were analyzed by LC/MS^n-IT-TOF using a previously reported method. […]

## COc1ccc2c(c1OC)CN1CCc3cc4c(cc3C1=C2)OCO4 [dhBBR, dihydroberberine]
[1]
  incubation time until dhBBR became detectable: ≤ 6 h
[2]; Caco-2, pH 7.4, read-out: efflux ratio (ER)
  efflux ratio at 30 min, 5 μM: 1.58
[2]; pH 7.4, Caco-2, 5 μM, 30 min
  Papp A→B at 30 min, 5 μM: 4.51 ×10⁻⁶ cm/s
[3]
  fold Papp (AP-BL) of dhBBR over BBR: 11.9 fold
[4]; duodenum and jejunum homogenate
  dhBBR-to-BBR reversion: almost completely
[4]; ileum homogenate
  dhBBR-to-BBR reversion rate: more than 80%
[5]; SD, rat, plasma, po, 200 mg/kg, Fig. 3b curve 2, read-out: AUC(0-t) of dhBBR in plasma
  AUC(0-t): 48.9 ng·h/mL
[5]; SD, rat, plasma, po, 200 mg/kg, Fig. 3b curve 2, read-out: Cmax of dhBBR in plasma
  Cmax: 10.2 ng/mL
[5]
  dhBBR level in plasma: less than 10 ng/ml
[6]
  antibacterial effect compared with BBR: even weaker than that of BBR in 5 of the 17 intestinal bacteria strains
[7]
  incubation time until dhBBR became detectable: ≤ 24 h
